≈ marks a conversion by molar mass, not a printed value.
How the values were obtained:
[1] = Accelerated stability test; type: physicochemical; settings: 40°C ± 2°C, relative humidity 75% ± 5%
histamine = assay: Antagonism of histamine-induced contraction of isolated ileal smooth muscle of guinea pigs; settings: 3 minutes after adding 0.05 mL compound following histamine; x±s, n = 8
Experimental: (§1) The guinea pig was knocked unconscious with a wooden stick, and the abdomen was immediately dissected to separate the ileum about 15 cm in length. The contents of the intestinal segment were flushed with Tyrode's solution and placed in Tyrode's solution at a constant temperature of 37°C for later use, and oxygen was supplied simultaneously. The experimental intestinal tract (1 cm in length) was cut and placed into 20 ml of Tyrode's solution at a constant temperature of 37°C with a continuous oxygen supply. One end of the intestine was fixed on the ventilation hook and the other end was connected to the muscle tone transducer and led to the computer interface. The muscle tone value of the ileal smooth muscle was recorded with a BL system. The experiment was carried out after the intestinal segment contraction became stable.
(§2) After the ileal peristalsis curve stabilized, the tone values before adding the compound were recorded, and then 0.05 mL of histamine was added. […] The operation was repeated 8 times. The antispasmodic percentage was calculated using the following equation. Antispasmodic percentage =; (Tone value after adding histamine−Tone value after adding subject compound)/(Tone value after adding histamine) × 100% [formula]

[2] = as above; settings: relative to tone after adding histamine; x±s, n = 8; 3 min
Experimental: as §1, §2

[3] = system: histamine-induced asthma in guinea pigs; assay: Antiasthmatic effect on histamine-induced asthma in guinea pigs (latency period); type: in vivo; settings: 1 mg/kg oral gavage, sixty minutes after administration; histamine hydrochloride spray; capped at 8 minutes; X±s, n = 5
Experimental: The guinea pigs were placed in a polymethyl methacrylate bell jar and a histamine hydrochloride solution was sprayed ultrasonically (0.8 mg/mL) for 40 seconds. The time point at which the guinea pigs developed asthma was recorded. The time of convulsion and fall was taken as the latency period. Guinea pigs with a latency period exceeding 180 seconds were not selected. […] The guinea pigs were administered by oral gavage at a dose of 2 mL/kg·bw. Sixty minutes after the administration, the guinea pigs were placed in bell jars, and histamine hydrochloride solution was sprayed under the same conditions as in the previous selection. The latency period for the onset of asthma was recorded. […] The results were processed statistically.

[4] = system: isolated ileal smooth muscle of guinea pigs; assay: Effect on muscle tone of isolated ileal smooth muscle of guinea pigs (no histamine added); settings: X±s
Experimental: as §1
After the ileum contraction curve stabilized, the tone values before adding the drug were recorded, then the drug or DMSO was added, and the average tone value of the ileum contraction curve at that point was recorded 5 minutes later. The operation was repeated 8 times. The antispasmodic percentage was calculated according to the following formula. Antispasmodic percentage =; (Tone value before adding subject compound−Tone value after adding subject compound)/(Tone value before adding subject compound); × 100% [formula]

[5] = Solubility of the compounds in water, methanol and isopropanol; type: physicochemical; settings: solvent water
Experimental: The solubility in water, methanol, and isopropanol of the compounds of the present disclosure and the comparative compounds were measured separately.

- Content ([1]; Month 0): 99.7%
- Description ([1]; Month 0): White powder
- Related substances ([1]; Month 0): 0.03%
- Description ([1]; Month 1): White powder
- Related substances ([1]; Month 1): 0.05%
- Description ([1]; Month 2): White powder
- Related substances ([1]; Month 2): 0.10%
- Description ([1]; Month 3): White powder
- Related substances ([1]; Month 3): 0.15%
- Description ([1]; Month 6): White powder
- Related substances ([1]; Month 6): 0.34%
- remaining at 730 h ([1]; storage 75% relative humidity, Month 1, read-out: Content): 99.7%
- remaining at 1460 h ([1]; storage 75% relative humidity, Month 2, read-out: Content): 99.6%
- remaining at 2190 h ([1]; storage 75% relative humidity, Month 3, read-out: Content): 99.5%
- remaining at 4380 h ([1]; storage 75% relative humidity, Month 6, read-out: Content): 99.2%
- Solubility in Water [5]: 20 mg/mL (≈ 43.2 mM)
SMILES: O=C1Cc2ccccc2C(=C2CCN(CCCOCOP(=O)(O)O)CC2)c2ccsc21 [Compound III-7]
- Smooth muscle tone After administration (histamine): 1.16 ± 0.22 g
- Antispasmodic percentage [2]: 66.28±16.16%
- Post-administration latency period [3]: 377.23 ± 50.23 s
- Smooth muscle tone After administration ([4]; 5 minutes after adding drug, n = 8): 1.20 ± 0.25 g
- Antispasmodic percentage ([4]; relative to tone before adding compound, n = 8, 5 min, 5 min): 30.23±19.04%
